Reference: article PMC6792352, “Limited Chemical Structural Diversity Found to Modulate Thyroid Hormone Receptor in the Tox21 Chemical Library” (Environmental Health Perspectives, 2019)
Structures can show the parent of a compound that is named as a salt.

assay: in vitro; conditions: rat, gh3-tre-luc cells, AC50 (uM) modified / 1000

SMILES	CC50 at 24 h [µM]
COc1ccccc1OC(=O)Oc1ccccc1OC [Guaiacol carbonate]	> 50
O=C(O)/C=C/C(O)c1ccc(Cl)cc1 (stereo not drawn) [Sodium (2E)-4-(4-chlorophenyl)-4-hydroxybut-2-enoate hydrate]	> 50
CN(C[C@@H](CC[N+]12CCC(C3CCCCC3)(CC1)CC2)c1ccc(Cl)c(Cl)c1)C(=O)c1cc(C(F)(F)F)cc(C(F)(F)F)c1 [UK-337312]	17
N[C@@H](C(=O)N[C@@H]1C(=O)N2C(C(=O)O)=C(CSc3c[nH]nn3)CS[C@H]12)c1ccc(O)cc1 [Cefatrizine]	> 50
CC(C)(O)CCc1ccccc1 [2-Methyl-4-phenylbutan-2-ol]	> 90
N#CCCCCC#N [Hexanedinitrile]	> 90
Clc1cc(Cl)c(Cl)c(Cl)c1Cl [Pentachlorobenzene]	> 90
CCOC(=O)O[C@]1(C(=O)COC(=O)CC)CC[C@H]2[C@@H]3CCC4=CC(=O)C=C[C@]4(C)[C@H]3[C@@H](O)C[C@@]21C [Prednicarbate]	> 20
C[C@H]1O[C@H](O[C@H]2[C@H](O)[C@@H](O)[C@@H](O[C@@H]([C@H](O)[C@@H](O)C=O)[C@H](O)CO)O[C@@H]2CO)[C@H](O)[C@@H](O)[C@@H]1N[C@H]1C=C(CO)[C@@H](O)[C@H](O)[C@H]1O [Acarbose]	> 50
Clc1cc(Cl)c(Cl)c(Cl)c1 [1,2,3,5-Tetrachlorobenzene]	> 90
COc1cc(OC)cc(OC)c1 [1,3,5-Trimethoxybenzene]	> 50
CN1CCCC(CC2c3ccccc3Sc3ccccc32)C1 (stereo not drawn) [Metixene hydrochloride]	8.17
Nc1c2c(nc3ccccc13)CCCC2O (stereo not drawn) [Hydroxytacrine maleate]	> 50
CN1CCCN=C1/C=C/c1cccs1 [Pyrantel tartrate]	> 50
CC=C(C)C(=O)OCCC(C)CCC=C(C)C (stereo not drawn) [3,7-Dimethyloct-6-en-1-yl 2-methylbut-2-enoate]	> 90
CN1CCc2cc3c(cc2C1O)OCO3 (stereo not drawn) [Hydrastinine hydrochloride]	> 90
CC1=NC(C)OC1C (stereo not drawn) [2,4,5-Trimethyl-3-oxazoline]	> 90
C=CC(=O)CC [Ethyl vinyl ketone]	> 90
C1COCCO1 [1,4-Dioxane]	> 90

SMILES	CC50 at 24 h [µM]
CCN(CC)C(=O)SCc1ccc(Cl)cc1 [Thiobencarb]	> 90
CN(C1CCCCC1)S(=O)(=O)c1ccccc1N [2-Amino-N-cyclohexyl-N-methylbenzenesulfonamide]	> 90
CS(=O)(=O)OC[C@H](O)[C@@H](O)COS(C)(=O)=O [Treosulfan]	> 50
CC(=O)N[C@H]1[C@H]([C@H](O)[C@H](O)CO)OC(C(=O)O)=C[C@@H]1N=C(N)N [Zanamivir]	> 50
CCSc1ccc2c(c1)N(CCCN1CCN(C)CC1)c1ccccc1S2 [Thiethylperazine malate]	> 20
CCCCN [Butylamine]	> 50
[O-][n+]1cccc(CO)c1 [Mepiroxol]	> 50
CC(C)(O)CCC(C)(C)O [2,5-Dimethylhexane-2,5-diol]	> 90
Oc1cc2c(cc1O)[C@@H]1c3ccc(O)c(O)c3OC[C@]1(O)C2 [Hematoxylin]	69.9
COc1cc(C(=O)NC2CCN(C)CC2)ccc1Nc1ncc2c(n1)N(C1CCCC1)CC(F)(F)C(=O)N2C [PharmaGSID_48511]	1.83
COC(=O)c1ccccc1C(=O)O [Monomethyl phthalate]	> 90
CC/C=C\CC/C=C/CO [trans-2,cis-6-Nonadien-1-ol]	> 90
CC(=O)OC1C2(C)CCC(C2)C1(C)C (stereo not drawn) [Fenchyl acetate]	> 90
O=C(Nc1ccc(F)cc1F)c1cccnc1Oc1cccc(C(F)(F)F)c1 [Diflufenican]	> 100
O=NN1CCNCC1 [N-Nitrosopiperazine]	> 100
C/C=C1\NC(=O)[C@H]2CSSCC/C=C/[C@H](CC(=O)N[C@H](C(C)C)C(=O)N2)OC(=O)[C@H](C(C)C)NC1=O [Romidepsin]	0.0269
CN1CCCN(C(c2ccccc2)c2ccc(Cl)cc2)CC1 (stereo not drawn) [Homochlorcyclizine]	7.44
c1ccc(OCC2CO2)cc1 (stereo not drawn) [Phenyl glycidyl ether]	> 90
COS(=O)(=O)OC [Dimethyl sulfate]	> 90

SMILES	CC50 at 24 h [µM]
CCN1CCCC1=O [1-Ethyl-2-pyrrolidinone]	> 90
CC(=O)CC(c1ccccc1)c1c(O)c2ccccc2oc1=O (stereo not drawn) [Warfarin]	> 90
OCCN1CCN(CCCN2c3ccccc3Sc3ccc(Cl)cc32)CC1 [Perphenazine]	4.46
C[C@]1(Cn2ccnn2)[C@H](C(=O)O)N2C(=O)C[C@H]2S1(=O)=O [Tazobactam sodium]	> 50
Clc1ccc(Sc2cc(Cl)c(Cl)cc2Cl)cc1 [Tetrasul]	> 90
CC(C)c1ccc(S(=O)(=O)O)cc1 [4-Isopropylbenzenesulfonic acid]	> 90
CCCCCc1ccc(N)cc1 [4-Pentylaniline]	> 90
CN(C)CCOCCN(C)C [Bis[2-(dimethylamino)ethyl]ether]	> 90
CO[C@@H]1[C@@H](O[C@@H]2O[C@H](C)[C@@H](O[C@H]3C[C@@](C)(O)[C@@H](O)[C@H](C)O3)[C@H](N(C)C)[C@H]2O)[C@@H](CC=O)C[C@@H](C)[C@@H](O[C@H]2CC[C@H](N(C)C)[C@@H](C)O2)/C=C/C=C/C[C@@H](C)OC(=O)C[C@H]1OC(C)=O [Spiramycin II]	32.1
SC1CCCCC1 [Cyclohexanethiol]	> 100
COC(C)(C)C [Methyl tert-butyl ether]	> 90
CCOc1cccc(N)c1 [3-Ethoxyaniline]	> 90
COCCC#N [3-Methoxypropionitrile]	> 90
CCCCCCC(C)OC(=O)COc1nc(F)c(Cl)c(N)c1Cl (stereo not drawn) [Fluroxypyr-meptyl]	51.1
CC1(C)S[C@@H]2[C@H](NC(=O)[C@H](N)c3ccccc3)C(=O)N2[C@H]1C(=O)OC1OC(=O)c2ccccc21 (stereo partly drawn) [Talampicillin hydrochloride]	> 20
CC=O [Acetaldehyde]	3.09
C=C(C)C(=O)OCCCCCCCCCC [Decyl methacrylate]	> 90
Cc1ccccc1/N=N/c1ccc(/N=N/c2c(O)ccc3ccccc23)c(C)c1 [C.I. Solvent Red 24]	> 50
COC(=O)C(C)Oc1ccc(Oc2ccc(Cl)cc2Cl)cc1 (stereo not drawn) [Diclofop-methyl]	> 90

same assay, conditions: rat, gh3-tre-luc cells, AC50 (uM) modified / 1000, Tox21_110001=Tox21_111052; viability, 1 nM T3 present, 24 h

SMILES	CC50 at 24 h [µM]
COP(=O)(OC)OC=C(Cl)Cl [Dichlorvos]	> 50

same assay, conditions: rat, gh3-tre-luc cells, AC50 (uM) modified / 1000, Tox21_110001=Tox21_111475; viability, 1 nM T3 present, 24 h

SMILES	CC50 at 24 h [µM]
CC(C)C[C@H](CN)CC(=O)O [Pregabalin]	> 50

same assay, conditions: rat, gh3-tre-luc cells, AC50 (uM) modified / 1000, Tox21_110001=Tox21_112058; viability, 1 nM T3 present, 24 h

SMILES	CC50 at 24 h [µM]
O[C@H]1[C@H]2[C@H](O)CCCN2C[C@H]1O [Swainsonine]	> 50

same assay, conditions: rat, gh3-tre-luc cells, AC50 (uM) modified / 1000, Tox21_110001=Tox21_200928; viability, 1 nM T3 present, 24 h

SMILES	CC50 at 24 h [µM]
OC[P+](CO)(CO)CO [Tetrakis(hydroxymethyl)phosphonium sulfate]	> 90

same assay, conditions: rat, gh3-tre-luc cells, AC50 (uM) modified / 1000, Tox21_110001=Tox21_201617; viability, 1 nM T3 present, 24 h

SMILES	CC50 at 24 h [µM]
COP(=O)(OC)OC=C(Cl)Cl [Dichlorvos]	> 90

same assay, conditions: rat, gh3-tre-luc cells, AC50 (uM) modified / 1000, Tox21_110001=Tox21_202072; viability, 1 nM T3 present, 24 h

SMILES	CC50 at 24 h [µM]
ClC1=C(Cl)[C@]2(Cl)[C@H]3[C@H]([C@@H]4C=C[C@H]3C4)[C@@]1(Cl)C2(Cl)Cl [Aldrin]	51.6

same assay, conditions: rat, gh3-tre-luc cells, AC50 (uM) modified / 1000, Tox21_110001=Tox21_300172; viability, 1 nM T3 present, 24 h

SMILES	CC50 at 24 h [µM]
ClC1=C(Cl)[C@]2(Cl)[C@H]3[C@H]([C@@H]4C=C[C@H]3C4)[C@@]1(Cl)C2(Cl)Cl [Aldrin]	46.1

same assay, conditions: rat, gh3-tre-luc cells, AC50 (uM) modified / 1000, Tox21_110001=Tox21_301004; viability, 1 nM T3 present, 24 h

SMILES	CC50 at 24 h [µM]
CSc1nc(N=[N+]=[N-])nc(NC(C)C)n1 [Aziprotryne]	> 90

same assay, conditions: rat, gh3-tre-luc cells, AC50 (uM) modified / 1000, Tox21_110001=Tox21_301908; viability, 1 nM T3 present, 24 h

SMILES	CC50 at 24 h [µM]
COP(=S)(OC)Oc1ccc([N+](=O)[O-])cc1Cl [Dicapthon]	> 90
